Results from patent publication US11246945B2, “Cisplatin-loaded microbubbles, pharmaceutical composition for treatment of cancer, method for preparing pharmaceutical compositions and method for treating cancer” (National Defense Medical Center, priority 2019, dated 2022).

Columns and labels:
[1] = tested on: head and neck cancers; settings: patients with head and neck cancers; cited from earlier work
[2] = intraperitoneal, single 14 mg/kg or 4.6 mg/kg/day for three consecutive days; cited from earlier work
[3] = Body weight during the 33-day treatment; format: in vivo, SCID mice; settings: 33-day treatment period; without ultrasound
Procedure: Severe combined immunodeficiency (SCID) mice were subcutaneously implanted with luminescence-labelled hypopharynx carcinoma cell line (FaDu-fLuc/GFP) (2×10^6 cells/mouse) into the right flank region on Day 0. On Day 4, tumor xenograft formation and size in implanted SCID mice were determined by IVIS® bioluminescence imaging system (version 4.4, Caliper Life Sciences, Alameda, Calif., USA). The implanted SCID mice were then classified into group I to group V (hereinafter referred to as “Gps I-V”), and the implanted SCID mice of each group were treated with different pharmaceutical compositions, which are summarized in Table 6 below. Specifically, the mice of Gp I was the control group, and was treated with saline. The mice of Gp II were treated with cisplatin dissolved in saline. The mice of Gp III were treated with saline containing the mixture of cisplatin and albumin microbubbles (concentration: 1.4×10^8 particles/mL), followed by ultrasound exposure (power: 3 W/cm^2, 30 seconds). […] The anti-tumor effect of cisplatin-based chemotherapy was evaluated in vivo on the growth of head and neck cancer by twice-weekly recordings of luciferase bioluminescence data derived from IVIS® images. On day 33, after the IVIS® images of the mice were obtained, the mice were sacrificed and analysed. […]

[4] = tested on: FaDu-fLuc/GFP tumor xenograft; assay: Anti-tumor effect on head and neck cancer xenograft (IVIS bioluminescence); format: in vivo, SCID mice; settings: Day 33; without ultrasound exposure
Procedure: Severe combined immunodeficiency (SCID) mice were subcutaneously implanted with luminescence-labelled hypopharynx carcinoma cell line (FaDu-fLuc/GFP) (2×10^6 cells/mouse) into the right flank region on Day 0. On Day 4, tumor xenograft formation and size in implanted SCID mice were determined by IVIS® bioluminescence imaging system (version 4.4, Caliper Life Sciences, Alameda, Calif., USA). The implanted SCID mice were then classified into group I to group V (hereinafter referred to as “Gps I-V”), and the implanted SCID mice of each group were treated with different pharmaceutical compositions, which are summarized in Table 6 below. Specifically, the mice of Gp I was the control group, and was treated with saline. The mice of Gp II were treated with cisplatin dissolved in saline. The mice of Gp III were treated with saline containing the mixture of cisplatin and albumin microbubbles (concentration: 1.4×10^8 particles/mL), followed by ultrasound exposure (power: 3 W/cm^2, 30 seconds). […] The anti-tumor effect of cisplatin-based chemotherapy was evaluated in vivo on the growth of head and neck cancer by twice-weekly recordings of luciferase bioluminescence data derived from IVIS® images. On day 33, after the IVIS® images of the mice were obtained, the mice were sacrificed and analysed.

N.N.[Cl][Pt][Cl] [CDDP, Cis-Diamine platinum (II) Dichloride]
Median survival time [1]: 151 days | Hearing threshold [2]: caused a hearing threshold shift | Body weight gain compared with Gp I, Gp IV and Gp V [3]: statistically smaller body weight gain | Tumor reduction / inhibition of tumor growth (luminescence flux) [4]: significantly better outcomes as compared to Gp IV
